Measured values published in US20240408175A1, “BMP9 OR AN AGONIST THEREOF AND ITS USES RELATED TO REDUCING METASTASIS OF CANCER” (THE UAB RESEARCH FOUNDATION, priority 2021, published 2024).

Key:
[1] = test system: PA1 cells; assay: Sulforhodamine B (SRB) growth assay, attached 2D; assay type: cell-based, human; conditions: 10 nM, 3 days
Method: Growth of cells was monitored by seeding 1,000 cells per well in a 96 well plate, followed by treatment with 10 nM BMP2/9 for indicated times. At endpoint, medium was shaken out from plates, followed by addition of cold 10% trichloroacetic acid in each well, and incubation at 4° C. for 10 minutes. Five sequential wash steps were performed by complete immersion in water and shake out of the water from the plate. Next, 0.4% sulforhodamine B (SRB) in 1% acetic acid was added to each well and incubated at room temperature for 10 minutes. Five washed were done by complete immersion in 1% acetic acid followed by complete removal of the remaining wash. Plates were air dried overnight. Finally, 200 mL of 20 mM Tris pH 10 (unbuffered) was added to each well and plate rocked on a rotary shaker for 1-2 hours and absorbance measured at 570 nm with a plate reader (Vichai and Kirtikara, 2006).

[2] = Overall toxicity of daily i.p. BMP9 (body weight, kidney and liver function tests); assay type: in vivo; conditions: up to 3 weeks
Method: All animal studies were performed in accordance with the Institutional Animal Care and Use Committee at the University of Alabama Birmingham. Female SCID mice (Key resources table) at 5-7 weeks of age were housed under pathogen-free conditions at the Animal Research Facility at UAB. 1.5×10^6 GFP-luciferase SK-OV3 cells or 3×10^6 GFP-luciferase expressing PA1 cells were intraperitoneally injected. Mice were monitored daily, with girth and weight measurement taken twice a week. Tumor progression was tracked weekly using the IVIS Lumina III In vivo Imaging System (Caliper Life Sciences, MA) at UAB's Small Animal Imaging Facility. rhBMP9 was administered at the time of tumor cell injection followed by daily intraperitoneal (i.p.) injections of 1 mg/mL in 4 mM HCl+PBS+DI water (Vehicle), to achieve a final 5 mg/kg dose. For metastasis and tumor growth analysis, mice were euthanized between 21-50 days depending on the cell line. At necropsy, ascites, if present, were collected and volumes measured when possible, tumor weights in the omentum and other organs were recorded and collected when possible. For survival studies, mice that reached end-point criteria, including continued weight loss, respiratory trouble and permanent recumbency were euthanized. […]

[3] = test system: SKOV3-luc-GFP cells; assay: SKOV3-luc-GFP intraperitoneal xenograft; assay type: in vivo, NOD-SCID mice
Method: All animal studies were performed in accordance with the Institutional Animal Care and Use Committee at the University of Alabama Birmingham. Female SCID mice (Key resources table) at 5-7 weeks of age were housed under pathogen-free conditions at the Animal Research Facility at UAB. 1.5×10^6 GFP-luciferase SK-OV3 cells or 3×10^6 GFP-luciferase expressing PA1 cells were intraperitoneally injected. Mice were monitored daily, with girth and weight measurement taken twice a week. Tumor progression was tracked weekly using the IVIS Lumina III In vivo Imaging System (Caliper Life Sciences, MA) at UAB's Small Animal Imaging Facility. rhBMP9 was administered at the time of tumor cell injection followed by daily intraperitoneal (i.p.) injections of 1 mg/mL in 4 mM HCl+PBS+DI water (Vehicle), to achieve a final 5 mg/kg dose. For metastasis and tumor growth analysis, mice were euthanized between 21-50 days depending on the cell line. At necropsy, ascites, if present, were collected and volumes measured when possible, tumor weights in the omentum and other organs were recorded and collected when possible. For survival studies, mice that reached end-point criteria, including continued weight loss, respiratory trouble and permanent recumbency were euthanized. For microscopic analysis of tissues, formalin-fixed tissues were processed, paraffin-embedded, and sectioned at 5 μm thickness and H&E stained at UAB's histology core.
(§1) IHC was performed using the BioCare Mach4 Universal Detection Kit. Specifically, anti-SOX2 was diluted in Da Vinci Green Diluent and incubated overnight at 4° C. in a humidified chamber. HRP was detected with 3,30-diaminobenzidine (DAB) substrate for 4 minutes. TUNEL staining was performed according to the manufacturer's instruction. Slides were examined and images captured with EVOS M7000 microscope. Cell profiler (Stirling et al., 2021) and Image J Fiji software were used for image quantification.

[4] = test system: PA1 cells; assay: Microarray transcription profile under anchorage independence; assay type: cell-based, human; conditions: 24 h, 2-fold change criterion
Method: Lysate and RNA preparation: 100,000-300,000 cells were seeded in a poly-HEMA coated 6-well plate for indicated times in full serum unless indicated otherwise. Cells were collected by centrifugation and lysed with trizol for RNA extraction or direct 2× lysis buffer for protein lysates.
Total cellular RNA was extracted using Trizol reagent according to the manufacturer's protocol. RNA quality was determined using an Agilent 2100 Bioanalyzer and an RNA 6000 Nano kit (Agilent, Cat. No. 5067-1511) with RNA integrity numbers (RIN) ranging from 9.8 to 10. Microarray analyses were performed on the GeneChip™ Human Gene 2.0 ST ArrayS (Thermo Fisher Scientific, Cat. No. 902112) by the functional genomic core at University of South Carolina. Data were imported into the Affymetrix GeneChip Expression Console 1.4.1.46 and processed at the gene-level using the Robust Multichip Analysis (RMA) algorithm to generate CHP files. Experimental-group specific transcriptional responses were determined using unpaired one-way between-subject analysis of variance (ANOVA). Differentially expressed genes with p-values smaller than 0.05 and fold change higher than 2.0 and lower than −2.0 were used for further bioinformatics analysis.

[5] = test system: SOX2; assay: SOX2 levels in xenograft tumors (IHC, qRT-PCR); assay type: in vivo; conditions: IHC and qRT-PCR, vs vehicle control-treated mice
Method: as §1

[6] = test system: 1-kb SOX2 promoter reporter; assay: pGL3-SOX2 promoter-reporter luciferase assay in HEK293 cells; assay type: cell-based, human; conditions: 10 nM, 24 hours, serum-free
Method: HEK293 cells were transfected with the pGL3-SOX2 promoter-luciferase reporter plasmid construct and SV40-renilla for 24h. […] According to the manufacturer's instruction, cells were collected and lysed in […] passive lysis buffer. To measure luciferase activity, […] of lysate was added to […] of dual Luciferase Assay Reagent, and luminescence was quantitated using a luminometer (Biotek).

[7] = test system: SOX2 promoter methylation; assay: Methylation-specific qPCR of SOX2 promoter; assay type: cell-based, human; conditions: PA1, rhBMP9 24 h
Method: Genomic DNA was extracted, and bisulfite conversion was performed on 500 ng of gDNA using the MethylAmp DNA modification kit according to manufacturer's instructions. Relative quantitative RT-PCR (qPCR) was performed with methylation-specific and unmethylation-specific primers (see Table 3).

[8] = test system: HEY parental cells; assay: Cell survival under anchorage independence, HEY parental; assay type: cell-based, human; conditions: 1, 5, 10 nM for 24, 48, and 72 hours
Method: (§2) For Live/Dead analysis under anchorage independence, 1,000 cells were seeded in 96-well hydrogel-coated ultra-low attachment (ULA) plates (Corning #4515) for times indicated. Growth factor treatment was done under low serum 2.5% FBS condition (Cells were plated in 10% FBS to allow spheroid formation before beginning treatment). Cells were then stained with 2 μM Calcein-AM and 4 μM Ethidium-homodimer for 30 min before imaging. z-stacked images were obtained using the Zeiss LSM700 Confocal microscope (Microscopy and Flow Cytometry Core, University of South Carolina) and NIKON A1 Confocal microscope (UAB High Resolution Imaging Facility). Fluorescent quantification was performed using ImageJ Fiji software to calculate the Corrected Total Cell Fluorescent (CTCF)=Integrated Density−(Area of selected cell×Mean fluorescence of background readings) per spheroid.

[9] = test system: A2780ip2 cells; assay: Cell survival under anchorage independence, A2780ip2; assay type: cell-based, human; conditions: dose and time course
Method: as §2

[10] = test system: HEY-T30 cells; assay: Flow cytometry, Annexin V / PI apoptosis; assay type: cell-based, human; conditions: 3D, 48 hours; 10 nM BMP9, 300 nM paclitaxel or combination
Method: 700,000 cells were seeded in 60 mm poly-hema coated culture dishes, followed by incubation with 300 nM paclitaxel and 10 nM BMP9 alone or in simultaneous combination for 48 hours. Cells were centrifuged and resuspended in 1×binding buffer, followed by incubation with Annexin V and PI according to the manufacturer's procedure manual. The stained cell suspension was added to FACS tubes containing 200 μl 1×binding buffer and measured by BD LSRFortessa flow cytometer. The data were analyzed using BD FACSDiva (Becton Dickinson, NJ, USA) software. Annexin V-positive and PI-negative cells were considered to be in the early apoptotic phase, Annexin V-negative and PI-positive cells were considered to be in the necrosis phase, cells having positive staining for both Annexin-V and PI were considered to undergo late apoptosis and cells negative for Annexin V and PI were considered to be live cells.

For “BMP9: recombinant human bone morphogenetic protein 9 (BMP9/GDF2), TGF-β family ligand”, which cell growth [1] is on record?
Its cell growth is “did not alter”.

What about the “overall toxicity (body weight, kidney and liver function tests)” value [2] of the same substance?
The value was “no notable toxicity”.

And the “mice with detectable ascites” value ([3]; 5 mg/kg i.p. daily)?
The value was “none”.

What about the “intraperitoneal tumor growth by BLI in the abdomen” value ([3]; 5 mg/kg i.p. daily, day 16, vs vehicle) of the same substance?
Its value is “significantly lower”.

What about the “infiltrated tumor cells in omental tumors (histology)” value ([3]; vs vehicle) of the same substance?
Its value is “significantly fewer”.

What about the “increase in TUNEL-positive cells in tumors” value ([3]; vs vehicle-treated mice) of the same substance?
The value was 143.

What about the downregulated genes [4] of the same substance?
Its downregulated genes is 210.

What about the upregulated genes [4] of the same substance?
Its upregulated genes is 333.

And the differentially expressed genes ([4]; p<0.05)?
The differentially expressed genes was 543.

And the “SOX2 levels in xenograft tumors” value [5]?
The value was “overall reduction”.

What about the “luciferase activity of SOX2 promoter reporter” value [6] of the same substance?
The value was “significantly reduce”.

And the “increase in SOX2 promoter methylation compared with control cells” value [7]?
Its value is 2.53.

What about the “decrease in percentage live cells” value [8] of the same substance?
The value was 50-65%.

What about the “decrease in percentage live cells” value [9] of the same substance?
Its value is 30%.

And the apoptosis in cells [10]?
The apoptosis in cells was 6.8%.
